Results taken from ChEMBL document CHEMBL1201862, “PubChem BioAssay data set” (2004).
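Interpolation was linear, between the two tested concentrations surrounding the appropriate level; five concentrations were tested over 48 hours in 96-well plates. Abbreviation: GI50, concentration required for 50% inhibition of growth.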 Activity calls are given as the source filed them. No stated cut-off is given here; in the data, active = GI50 up to about 1.1 µM and inactive = higher.

Legend:
Test in all cases: NCI anticancer screen, dose series, 48 h
[1] = system: DMS-273
[2] = system: RXF 631
[3] = system: HOP-18
[4] = system: KM-20L2
[5] = system: DLD-1
[6] = system: M19-MEL
[7] = system: XF498
[8] = system: LXFL 529

Measured: GI50

CC(=O)c1ccccc1NC(=O)C(=O)C(C(=O)c1ccccc1-c1ccccc1)C1OC(=O)c2ccccc21 (centres undefined)
inactive: [1] 31.9 µM | [2] 50.6 µM | [3] 15.2 µM | [4] 26.6 µM | [5] 23.1 µM | [6] 17.2 µM | [7] 11.3 µM | [8] 15.5 µM

N#CCC(=O)Nc1cccc(C(F)(F)F)c1
inactive: [1] > 100 µM | [2] > 100 µM | [3] 29.2 µM | [4] > 100 µM | [5] > 100 µM | [6] > 100 µM | [7] > 100 µM | [8] > 100 µM

CC(C)C1=CC(=O)C(C)(C2=NC(C)(C)CO2)c2ccccc21 (centres undefined)
inactive: [1] > 100 µM | [2] 95.7 µM | [3] 34.6 µM | [4] > 100 µM | [5] > 100 µM | [6] > 100 µM | [7] > 100 µM | [8] 94.4 µM

CCCCCCCCCCCCCC(=O)NCO
inactive: [2] > 100 µM | [3] > 100 µM | [4] > 100 µM | [5] > 100 µM | [6] > 100 µM | [7] > 100 µM | [8] > 100 µM

O=C1/C(=C/c2ccc(Cl)cc2)COc2ccc(Br)cc21
inactive: [1] > 100 µM | [2] > 100 µM | [3] 11.6 µM | [4] > 100 µM | [5] > 100 µM | [6] > 100 µM | [7] 69 µM | [8] > 100 µM
